Data as given in patent US7022315B2, “Administration of a thiol-based chemoprotectant compound” (Oregon Health & Science University, priority 2000, dated 2006).
Marks after values point to notes of the source that are not given here.

Experiments:
[1] = Radiolabeled NAC tissue delivery by route of administration; type: in vivo, rat; details: for 14C-NAC found in brain: Example 10
Protocol: Radiolabeled NAC in combination with unlabeled low dose NAC (140 mg/kg) or high dose NAC (1200 mg/kg) was administered to rats with the following routes of infusion: i.v. (open bars), intra-arterially into the right carotid artery (striped bars), intra-arterial via the left carotid artery with left internal artery occlusion (aortic infusion) (black bars), and intra-arterial (right carotid) with BBBD (cross hatched bars). Radiolabel in tissue homogenates is expressed as the mean and standard error of the % administered dose of 14C-NAC per gram of tissue (n=3 rats per group). Significant differences from i.v. delivery are indicated by *P<0.05 and **P<0.001.
In this experiment, radiolabeled NAC was administered to rats by three different routes. Liver and kidney tissue, in addition to the ipsilateral and contralateral hemispheres of the brain, were analyzed for radioactivity. Results are shown as the percent of the injected radioactive dose per gram of tissue. Route indicates intravenous (i.v.), intra-arterial into the right carotid artery (i.a.), or left carotid with internal artery occlusion and aortic infusion (left carotid aortic infusion). The left carotid aortic infusion intra-arterial method uses descending aorta placement of the catheter tip and NAC administration.
This example tested whether the inventive method for intra-arterial infusion (via the left carotid artery, with left internal artery occlusion) could reduce brain delivery of NAC and increase systemic delivery. Brain delivery was 0.04% of the injected dose with the inventive method (n=2).
The method of administration of NAC and its biodistribution was tested. Intra-arterial infusion retrograde via the left external carotid artery, with transient left internal artery occlusion, was evaluated as a mechanism to essentially perfuse via the descending aorta with limited delivery to the brain. […] The serum concentration of NAC 10 min after administration of 1200 mg/kg was 2.4 0.6 mg/ml (n=6) as determined by radiolabel remaining in the blood.

[2] = test system: B.5 LX-1 cells; test: In situ TUNEL staining for DNA fragmentation; type: cell-based; details: melphalan 10 μg/ml, N-acetylcysteine 1000 μg/ml
Protocol: FIGS. 7A and 7B show the effect of cytoenhancement and chemoprotection on apoptosis. […] Apoptosis was assessed in cultured LX-1 SCLC cells pretreated for 18 hours with or without 100 μM BSO. The experimental conditions were no addition (open bars), melphalan (10 μg/ml, striped bars) or melphalan (10 μg/ml) plus N-acetylcysteine (1000 μg/ml) (cross hatched bars) for 20 h prior to harvest. Caspase-2 activity is expressed as percentage activity in untreated control samples (mean±standard deviation, n=3). TUNEL staining is expressed as the percentage of cells showing positive staining.
Apoptosis was evaluated by measuring Caspase-2 enzymatic activity and by in situ TUNEL staining. […] The increase in caspase activity was variable between experiments and ranged from 50–100% at 7–8 h to 250–600% at 20–24 h after treatment with melphalan. […] In the experiment shown in FIG. 7B, TUNEL staining after melphalan treatment was positive in 29 of 3643 cells, compared to 7 of 4395 cells in the untreated control, and BSO treatment prior to melphalan increased the positive staining to 800 of 1699 cells. […] In both assays, activity was maximal with low doses of melphalan, or with a 1 hour pulse treatment with the doses used in the cytotoxicity assays.

[3] = test system: rats; test: Protection against chemotherapy-induced myelosuppression, nadir blood counts; type: in vivo, rat; details: for White Cell Nadir: mean ± SE
Protocol: FIGS. 10A–10D show the results of tests on chemoprotection for chemotherapy-induced myelosuppression. Rats received tri-drug chemotherapy (Carboplatin 200 mg/m2, etoposide phosphate 100 mg/m2, melphalan 10 mg/m2), with (triangles, squares) or without (circles) chemoprotection. Blood counts were determined prior to chemotherapy, at the blood nadir (6 days), and in the recovery phase (9 days after treatment). Chemoprotection was with NAC (1200 mg/kg) administered via aortic infusion 30 min prior to chemotherapy (triangles) or NAC prior to chemotherapy and STS (8 g/m2) immediately after chemotherapy (squares). In FIG. 10B and FIG. 10D animals received BSO (10 mg/kg i.p.×3 d) prior to treatment with chemotherapy. […] Significant difference from the no protectant groups were determined by Wilcoxon/Kruskal-Walliis rank sums tests (*p<0.05, **p<0.01).
Chemoprotection against chemotherapy-induced bone marrow toxicity was determined in BSO treated and untreated animals given i.a. carboplatin, etoposide phosphate, and melphalan. NAC with or without STS was administered either about 30 minutes prior to chemotherapy or immediately after chemotherapy, and was administered either i.v. or by aortic infusion.

[4] = test system: patients with moderate renal insufficiency; details: approximately 1200 mg per day orally, day before and day of contrast agent; computed tomography; cited from earlier work
[5] = route left carotid aortic infusion, n=2
[6] = Table 7, no BSO, aortic infusion post chemo
[7] = Table 7, no BSO, i.v. 30 min prior
[8] = Table 7, no BSO, i.v. post chemo
[9] = Table 8, BSO pretreatment, aortic infusion post chemo

SMILES: CC(=O)N[C@@H](CS)C(=O)O [NAC, N-acetylcysteine]
- serum concentration of NAC ([1]; 10 min after administration of 1200 mg/kg, radiolabel remaining in the blood, n=6): 2400 µg/mL
- 14C-NAC found in brain ([1]; aortic infusion): minimized brain delivery
- 14C-NAC found in brain ([1]; i.v.): negligible amounts
- 14C-NAC found in brain ([1]; intra-arterial, right internal carotid artery): high levels of radiolabel in the right cerebral hemisphere
- liver and kidney delivery with aortic infusion ([1]; high dose (1200 mg/kg) NAC, data not shown): no change in liver and kidney delivery
- Brain delivery ([1]; intra-arterial infusion via the left carotid artery with left internal artery occlusion, n=2): 0.04 % of the injected dose
- liver and kidney delivery with aortic infusion ([1]; low dose of NAC (140 mg/kg)): decreased liver delivery and increased kidney delivery
- left hem ([1]; route i.a. into the right carotid artery, n=3): 0.03% of the injected radioactive dose per gram of tissue
- left hem ([1]; route i.v., left brain hemisphere, n=2): 0.02% of the injected radioactive dose per gram of tissue
- kidney ([1]; route i.v., n=2): 0.72% of the injected radioactive dose per gram of tissue
- liver ([1]; route i.v., n=2): 0.59% of the injected radioactive dose per gram of tissue
- kidney [1, 5]: 1.42% of the injected radioactive dose per gram of tissue
- left hem [1, 5]: 0.04% of the injected radioactive dose per gram of tissue
- liver [1, 5]: 0.29% of the injected radioactive dose per gram of tissue
- right hem [1, 5]: 0.04% of the injected radioactive dose per gram of tissue
- effect on melphalan-induced TUNEL staining [2]: reduced
- White Cell Nadir ([3]; Table 7, no BSO, aortic infusion 30 min prior (1200 mg/kg), N=6): 69.7 ± 19.3% of baseline
- Granulocyte Nadir [3, 6]: 36.6 ± 17.0% of baseline
- Platelet Nadir [3, 6]: 26.8 ± 9.3% of baseline
- White Cell Nadir ([3]; Table 7, no BSO, aortic infusion post chemo, N=6): 25.9 ± 4.9% of baseline
- Granulocyte Nadir [3, 7]: 93.5 ± 28.1% of baseline
- Platelet Nadir [3, 7]: 53.3 ± 12.7% of baseline
- White Cell Nadir ([3]; Table 7, no BSO, i.v. 30 min prior, N=8): 51.4 ± 9.4% of baseline
- Granulocyte Nadir [3, 8]: 57.9 ± 8.8* percent of baseline
- Platelet Nadir [3, 8]: 36.8 ± 10.4% of baseline
- White Cell Nadir ([3]; Table 7, no BSO, i.v. post chemo, N=6): 46.0 ± 6.5* percent of baseline
- Platelet Nadir ([3]; Table 8, BSO pretreatment, aortic infusion 30 min prior): 23.1 ± 6.2% of baseline
- White Cell Nadir ([3]; Table 8, BSO pretreatment, aortic infusion 30 min prior, N=9): 20.1 ± 2.7% of baseline
- Granulocyte Nadir [3, 9]: 19.8 ± 14.7% of baseline
- Platelet Nadir [3, 9]: 11.7 ± 3.5% of baseline
- White Cell Nadir ([3]; Table 8, BSO pretreatment, aortic infusion post chemo, N=7): 13.9 ± 4.2% of baseline
- effect on renal function after radiographic contrast agent [4]: prevented the expected decline in renal function
